Experimental data as given in patent US11066438B2, “Squalamine solid forms and methods of making the same” (Enterin, Inc., priority 2017, dated 2021).
“Also recorded” adds a separate entry of the source. Where two headings read alike, the source gives them in different places.

How the values were obtained:
HIV = conditions: cited from earlier work
[1] = cited from earlier work
[2] = cited from earlier work; remark: listed apart in the source
[3] = Critical water activity for relative form stability: ethanol slurries at 25° C., XRPD; assay type: physicochemical; conditions: for Final Form by XRPD: ethanol slurry 25° C.; for Water activity levels in ethanol at which the form is the stable form: EtOH slurries, 25° C.
Method: For robust isolation of desired squalamine phosphate crystal form, critical water activity in EtOH has been investigated in terms of the relative stability of ENT-01 Forms 1 and 2. The procedure is detailed below.
Nine samples of each Form 1 and Form 2 separately (˜25 mg each) were prepared in scintillation vials. To each vial ½ mL of ethanol with water activity levels from 0.1 to 0.9 were added and the vials were let to condition in a shaker at 25° C. for 2-3 days. Similarly, six mixed samples of Form 1 and 2 were prepared and slurry conditioned at water activity levels of 0.1 to 0.6 in ethanol at 25° C. The wet cakes of each slurry were analyzed by XRPD.
The slurries post conditioning were analyzed by XRPD. […] The XRPD pattern matches that of Form 2.

[4] = Form stability: low (27% RH) and high (70% RH) humidity conditioning, XRPD; assay type: physicochemical; conditions: 21° C.
Method: One sample each of Form 1 and Form 2 on XRPD plates (˜10 mg each) were exposed to 21° C. 27% RH and 21° C. 70% RH for one and two days, respectively. The four samples were analyzed by XRPD (FIG. 12 and FIG. 13).

[5] = Form stability: dry ethanol slurry at 30° C., XRPD; assay type: physicochemical; conditions: Slurry in dry ethanol at 30° C., overnight
Method: A small portion of Form 1 (˜50 mg) and a small portion of Form 2 (˜50 mg) were prepared in scintillation vials and equal volumes of sieve dried ethanol was added, the slurries were conditioned overnight in a shaker at 30° C. The wet slurries were analyzed by XRPD (FIG. 14).

[6] = Form stability: water-acetone and water-ethanol wash, then 40° C. drying, XRPD; assay type: physicochemical; conditions: overnight
Method: Two small portions of Form 2 (˜100 mg each) were prepared in sample vials. The first one was slurried in water briefly followed by filtration and acetone wash. The second one was slurried in water briefly, filtered and washed with ethanol. Both samples were then oven dried at 40° C. overnight and analyzed by XRPD (FIG. 11).

[7] = dose levels 6 to 700 mg/m(2)/day
[8] = patients, 500 mg/m(2)/day, 5-day continuous i.v. infusion

In the case of Nc1nc(=O)n([C@@H]2CS[C@H](CO)O2)cc1F [COVIRACIL, emtricitabine], the “greater activity in vitro than lamivudine (3TC)” value (HIV; in vitro) is listed as 3-to 10 fold.

For CC[C@H]1C(=O)Nc2ccc(F)cc2N1C(=O)OC(C)C [GW420867X], the “greater activity than HBY097” value (HIV) is given as 25 fold.

In the case of C[C@H](Sc1nc(N)cc(Cl)n1)c1cc2ccoc2cn1 [PNU-142721], the “greater activity than its predecessor delavirdine” value (HIV) is listed as 20- to 50 fold.

For CC(C)[C@@H](CC[C@@H](C)[C@H]1CC[C@H]2[C@@H]3[C@H](O)C[C@H]4C[C@@H](NCCCNCCCCN)CC[C@]4(C)[C@H]3CC[C@]12C)OS(=O)(=O)O [squalamine, 3 beta-N-1-(N-[3-(4-aminobutyl)]-1,3-diaminopropane)-7 alpha,24 zeta-dihydroxy-5 alpha-cholestane 24-sulfate], the “dose-limiting toxicity (grade 3/4 arthralgia, myalgia, neutropenia)” value ([1]; 400 mg/m(2)/day with paclitaxel and carboplatin) is given as “two of three patients”, the “dose selected as the Phase II dose on the basis of safety and toxicity” value ([1]; combination regimen with paclitaxel and carboplatin) is given as 300 mg/m(2)/day and the “tolerability of the combination” value ([1]; continuously daily for 5 days, with paclitaxel and carboplatin on day 1) is given as “well tolerated”. The dose-limiting toxicity ([2]; 500 mg/m(2)/day) was “one of seven patients experienced dose-limiting grade 4 hyperbilirubinemia and grade 3 neurosensory changes”, the tolerability ([2]; 500 mg/m(2)/day) was “well tolerated” and the dose-limiting toxicity ([2]; 700 mg/m(2)/day) was “two of three patients developed grade 4 hyperbilirubinemia”. For the same molecule, the pharmacokinetics versus dose [2, 7] was “dose-proportional”, the principal dose-limiting toxicity [2, 7] was “Hepatotoxicity” and the “clearance, mean (percentage coefficient of variation)” value [2, 8] was 2.67 liters/h/m(2). The “half-life, mean (percentage coefficient of variation)” value [2, 8] was 9.46 h, the “steady-state concentrations, mean (percentage coefficient of variation)” value [2, 8] was 20.08 micro g/ml and the “volume of distribution, mean (percentage coefficient of variation)” value [2, 8] was 36.84 liters/m(2).

With squalamine phosphate [Form 1 + 2] the “Final Form by XRPD” value ([3]; mixed forms, Aw 0.099, water volume fraction 0.013, seven days) was “Form 1”, the “Final Form by XRPD” value ([3]; mixed forms, Aw 0.205, water volume fraction 0.030, seven days) was “Form 1” and the “Final Form by XRPD” value ([3]; mixed forms, Aw 0.298, water volume fraction 0.048, seven days) was “Form 1”. The “Final Form by XRPD” value ([3]; mixed forms, Aw 0.398, water volume fraction 0.073, seven days) was “Form 1”, the “Final Form by XRPD” value ([3]; mixed forms, Aw 0.502, water volume fraction 0.104, seven days) was “Form 1” and the “Final Form by XRPD” value ([3]; mixed forms, Aw 0.605 (0.6), water volume fraction 0.145, seven days) was “Form 2”. The “Final Form by XRPD” value ([3]; mixed forms, Aw 0.605 (0.6), water volume fraction 0.145, seven days, listed as Form 1 and 2) was “converted to Form 2” and the “Form after slurry conditioning, by XRPD” value ([3]; mixed slurries in Ethanol at water activity levels of 0.1 to 0.5 Aw at 25° C., seven days) was “converted to Form 1”.

With squalamine phosphate [Form 1 + Form 2] the “Final Form by XRPD” value ([3]; Aw 0.000, water volume fraction 0.000, three days) was “Form 1”, the “Final Form by XRPD” value ([3]; Aw 0.099, water volume fraction 0.013, three days) was “Form 1” and the “Final Form by XRPD” value ([3]; Aw 0.205, water volume fraction 0.030, three days) was “Form 1”. The “Final Form by XRPD” value ([3]; Aw 0.298, water volume fraction 0.048, three days) was “Form 1”, the “Final Form by XRPD” value ([3]; Aw 0.398, water volume fraction 0.073, three days) was “Form 1 + Form 2” and the “Final Form by XRPD” value ([3]; Aw 0.502, water volume fraction 0.104, three days) was “Form 1 + Form 2”. For the same molecule, the “Final Form by XRPD” value ([3]; Aw 0.700, water volume fraction 0.198, three days) was “Form 2”, the “Final Form by XRPD” value ([3]; Aw 0.802, water volume fraction 0.296, three days) was “Form 2” and the “Final Form by XRPD” value ([3]; Aw 0.900, water volume fraction 0.550, three days) was “Form 2”.

In the case of squalamine phosphate [Form 1], the “Final Form by XRPD” value ([4]; 27% RH, overnight (one day)) is reported as “remained the same form; also recorded: Form 1”, the “Final Form by XRPD” value ([4]; 70% RH, two nights) is reported as “remained the same as their respective starting forms; also recorded: Form 1” and the “Water activity levels in ethanol at which the form is the stable form” value [3] is reported as at most 0.5 Aw. For the same molecule, the “Form after slurry conditioning, by XRPD” value ([3]; slurries in Ethanol at water activity levels of 0.1 to 0.6 at 25° C., three days) was “stayed the same Form”, the “Form after slurry conditioning, by XRPD” value ([3]; slurries in Ethanol at water activity levels of 0.7 to 0.9 at 25° C., three days) was “converted to Form 2” and the “Final Form by XRPD” value [5] was “Form 1”.

For squalamine phosphate [Form 2], the “Final Form by XRPD” value ([4]; 27% RH, overnight (one day)) was “Form 1 was also obtained; also recorded: converted to Form 1”, the “Final Form by XRPD” value ([4]; 70% RH, two nights) was “remained the same as their respective starting forms; also recorded: Form 2” and the “Final Form by XRPD” value ([6]; Water-acetone wash + 40° C. dry) was “generates Form 1; also recorded: converted to Form 1”. The “Final Form by XRPD” value ([6]; Water-ethanol wash + 40° C. dry) was “generates Form 1; also recorded: converted to Form 1”, the “Water activity levels in ethanol at which the form is the stable form” value [3] was at least 0.6 Aw and the “Form after slurry conditioning, by XRPD” value ([3]; slurries in Ethanol at water activity levels of 0.1 to 0.3 at 25° C., three days) was “converted to Form 1”. For the same molecule, the “Form after slurry conditioning, by XRPD” value ([3]; slurries in Ethanol at water activity levels of 0.4 to 0.9 at 25° C., three days) was “stayed the same Form 2” and the “Final Form by XRPD” value [5] was “converted to Form 1”.
